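Briefly, cells in 96-well plates were exposed to five compound concentrations for 48 h, and endpoints were estimated by linear interpolation. The concentration for 50% growth inhibition is given as GI50.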 The source made the active and inactive calls. No stated cut-off is given here; in the data, active = GI50 up to about 1.1 µM and inactive = higher.
Tests used:
Test in all cases: growth of human tumour cells (NCI), 48 h
U-251 = test system: U-251
UACC-257 = test system: UACC-257
RXF 393 = test system: RXF 393
HT-29 = test system: HT-29
HL-60 = test system: HL-60
HCT-116 = test system: HCT-116
SF-539 = test system: SF-539
MOLT-4 = test system: MOLT-4
SN12C = test system: SN12C
SF-268 = test system: SF-268
SK-MEL-28 = test system: SK-MEL-28
EKVX = test system: EKVX
NCI-H522 = test system: NCI-H522
SK-OV-3 = test system: SK-OV-3
RPMI-8226 = test system: RPMI-8226
SNB-19 = test system: SNB-19
A498 = test system: A498
HOP-92 = test system: HOP-92
NCI-H226 = test system: NCI-H226
UO-31 = test system: UO-31

Measured: GI50

CCOC(=O)C(Cl)(NC(=O)OCc1ccccc1)C(F)(F)F (stereo unspecified)
inactive: U-251 > 100 µM | UACC-257 > 100 µM | RXF 393 > 100 µM | HT-29 > 100 µM | HL-60 > 100 µM | HCT-116 > 100 µM | SF-539 > 100 µM | MOLT-4 > 100 µM | SN12C > 100 µM | SF-268 > 100 µM | SK-MEL-28 > 100 µM | EKVX > 100 µM | NCI-H522 > 100 µM | SK-OV-3 > 100 µM | RPMI-8226 > 100 µM | SNB-19 > 100 µM | A498 > 100 µM | HOP-92 > 100 µM | NCI-H226 > 100 µM | UO-31 > 100 µM

Nc1ccc(-c2nc3ccccc3s2)cc1
inactive: U-251 17.4 µM | UACC-257 22 µM | RXF 393 17.8 µM | HT-29 19.4 µM | HL-60 24.9 µM | HCT-116 18 µM | SF-539 23 µM | MOLT-4 23.1 µM | SN12C 19.1 µM | SF-268 10.3 µM | SK-MEL-28 17.1 µM | EKVX 33.2 µM | NCI-H522 20.6 µM | SK-OV-3 45.5 µM | RPMI-8226 28.6 µM | SNB-19 28.1 µM | A498 29.7 µM | HOP-92 11.4 µM | NCI-H226 25.3 µM | UO-31 12.6 µM

Cc1nc2cc(/N=N/c3c(C)noc3C)ccc2[nH]1
inactive: U-251 28.4 µM | UACC-257 44.1 µM | RXF 393 16.3 µM | HT-29 17.7 µM | HL-60 13.1 µM | HCT-116 18.3 µM | SF-539 17.6 µM | MOLT-4 17.9 µM | SN12C 33.6 µM | SF-268 26.6 µM | SK-MEL-28 17.6 µM | EKVX 18.2 µM | NCI-H522 23.3 µM | SK-OV-3 18.9 µM | RPMI-8226 17.9 µM | SNB-19 43.9 µM | A498 11.1 µM | HOP-92 14.9 µM | NCI-H226 > 100 µM | UO-31 13.9 µM

CN(C)/C=C/c1nnnn1-c1ccc(I)cc1
inactive: U-251 11.9 µM | UACC-257 27 µM | RXF 393 28 µM | HT-29 22.9 µM | HL-60 6.21 µM | HCT-116 10.5 µM | SF-539 19.5 µM | MOLT-4 15.1 µM | SN12C 14.9 µM | SF-268 17.5 µM | SK-MEL-28 26.7 µM | EKVX 21.6 µM | NCI-H522 25.5 µM | SK-OV-3 18.1 µM | RPMI-8226 12.8 µM | SNB-19 20.3 µM | A498 40.8 µM | HOP-92 14.2 µM | NCI-H226 22.8 µM | UO-31 17.6 µM

CC(C)Oc1c(O)c2c3c(oc(=O)n3C=CC2c2ccccc2F)c1OC(C)C (stereo unspecified)
inactive: U-251 35.9 µM | UACC-257 28.6 µM | RXF 393 21 µM | HT-29 21.7 µM | HL-60 20.1 µM | HCT-116 21.7 µM | SF-539 22.5 µM | MOLT-4 18.7 µM | SN12C 38.4 µM | SF-268 64.9 µM | SK-MEL-28 53.8 µM | EKVX 41.1 µM | NCI-H522 33.8 µM | SK-OV-3 > 100 µM | RPMI-8226 17.3 µM | SNB-19 39.3 µM | A498 38.6 µM | HOP-92 28.1 µM | NCI-H226 32.6 µM | UO-31 24.4 µM

O=C1OC(c2ccco2)=N/C1=C\c1ccc(Cl)c(Cl)c1
inactive: U-251 57.7 µM | UACC-257 > 100 µM | RXF 393 22 µM | HT-29 > 100 µM | HL-60 > 100 µM | HCT-116 72.8 µM | SF-539 50 µM | MOLT-4 > 100 µM | SN12C > 100 µM | SF-268 59.6 µM | SK-MEL-28 > 100 µM | EKVX 75.9 µM | NCI-H522 51.4 µM | SK-OV-3 47.2 µM | RPMI-8226 > 100 µM | SNB-19 > 100 µM | A498 > 100 µM | HOP-92 > 100 µM | NCI-H226 57.5 µM

O=C(c1ccccc1O)c1cc(-c2ncc3c(=O)c4ccccc4oc3n2)c(-c2ccccc2O)[nH]c1=O
inactive: UACC-257 18.9 µM | RXF 393 23.4 µM | HT-29 28.2 µM | HL-60 24.9 µM | HCT-116 20.7 µM | SF-539 1.47 µM | MOLT-4 18.1 µM | SN12C 23.8 µM | SF-268 22.5 µM | SK-MEL-28 23.6 µM | EKVX 36.5 µM | NCI-H522 25.2 µM | SK-OV-3 25.9 µM | RPMI-8226 20.1 µM | SNB-19 8.73 µM | A498 21.3 µM | HOP-92 23.4 µM | NCI-H226 15 µM | UO-31 14.9 µM

O=c1c2cccnc2[nH]c2ccc3cn[nH]c3c12
inactive: U-251 > 10 µM | UACC-257 > 10 µM | RXF 393 2.15 µM | HT-29 > 10 µM | HL-60 4.49 µM | HCT-116 3.61 µM | SF-539 7.52 µM | MOLT-4 > 10 µM | SN12C 9.06 µM | SF-268 > 10 µM | SK-MEL-28 > 10 µM | EKVX 3.48 µM | NCI-H522 > 10 µM | SK-OV-3 > 10 µM | RPMI-8226 > 10 µM | SNB-19 > 10 µM | A498 > 10 µM | HOP-92 > 10 µM | NCI-H226 5.38 µM

CC(CC[C@@]1(C)C(=O)CCC2O[C@]21C)[C@H]1C[C@@H](c2ccoc2)OC1=O (stereo partly specified)
inactive: U-251 35.9 µM | UACC-257 > 100 µM | RXF 393 17.2 µM | HT-29 74.5 µM | HL-60 23.7 µM | HCT-116 19.5 µM | SF-539 35.7 µM | MOLT-4 28.3 µM | SN12C 27.8 µM | SF-268 31 µM | SK-MEL-28 23.6 µM | EKVX > 100 µM | NCI-H522 3.17 µM | SK-OV-3 > 100 µM | RPMI-8226 35.5 µM | SNB-19 > 100 µM | A498 > 100 µM | HOP-92 28.4 µM | NCI-H226 > 100 µM | UO-31 17.2 µM

CC1=C(C(=O)NCc2ccccc2)C(c2ccc(N(C)C)cc2)C(C(=O)NCc2ccccc2)=C(C)N1
inactive: U-251 > 100 µM | UACC-257 > 100 µM | RXF 393 11.7 µM | HT-29 > 100 µM | HL-60 > 100 µM | HCT-116 > 100 µM | SF-539 > 100 µM | MOLT-4 > 100 µM | SN12C > 100 µM | SK-MEL-28 > 100 µM | EKVX > 100 µM | NCI-H522 77.8 µM | SK-OV-3 > 100 µM | RPMI-8226 > 100 µM | SNB-19 > 100 µM | A498 > 100 µM | HOP-92 > 100 µM | NCI-H226 > 100 µM | UO-31 > 100 µM

O=C(CC1(O)C(=O)Nc2ccccc21)c1ccc2ccccc2c1 (stereo unspecified)
inactive: UACC-257 > 100 µM | RXF 393 > 100 µM | HT-29 > 100 µM | HL-60 > 100 µM | HCT-116 > 100 µM | SF-539 > 100 µM | MOLT-4 > 100 µM | SN12C > 100 µM | SF-268 > 100 µM | SK-MEL-28 > 100 µM | EKVX > 100 µM | NCI-H522 99.5 µM | SK-OV-3 > 100 µM | RPMI-8226 > 100 µM | SNB-19 > 100 µM | A498 > 100 µM | HOP-92 > 100 µM | NCI-H226 29.2 µM | UO-31 44.7 µM

CC1(C)OC2OC(C(=O)c3ccccc3)C3OC(C)(C)OC3C2O1 (stereo unspecified)
inactive: U-251 > 100 µM | UACC-257 > 100 µM | RXF 393 > 100 µM | HL-60 > 100 µM | HCT-116 > 100 µM | SF-539 > 100 µM | MOLT-4 > 100 µM | SN12C > 100 µM | SF-268 > 100 µM | EKVX > 100 µM | NCI-H522 > 100 µM | SK-OV-3 > 100 µM | RPMI-8226 > 100 µM | SNB-19 > 100 µM | A498 > 100 µM | HOP-92 > 100 µM | NCI-H226 > 100 µM | UO-31 > 100 µM

O=C1C[C@@]23CCC4(CC2CCC[C@H]3O1)OCCO4 (stereo partly specified)
inactive: U-251 > 100 µM | UACC-257 > 100 µM | RXF 393 > 100 µM | HT-29 > 100 µM | HL-60 > 100 µM | HCT-116 > 100 µM | SF-539 > 100 µM | MOLT-4 > 100 µM | SN12C > 100 µM | SF-268 > 100 µM | SK-MEL-28 > 100 µM | EKVX > 100 µM | NCI-H522 > 100 µM | SK-OV-3 > 100 µM | RPMI-8226 > 100 µM | SNB-19 > 100 µM | A498 > 100 µM | HOP-92 > 100 µM | NCI-H226 > 100 µM

C=CCN1C(=O)/C(=C/c2ccco2)N=C1SC1OC(COC(C)=O)C(OC(C)=O)C(OC(C)=O)C1OC(C)=O (stereo unspecified)
inactive: U-251 > 100 µM | UACC-257 > 100 µM | RXF 393 44 µM | HL-60 13.2 µM | SF-539 > 100 µM | MOLT-4 32.7 µM | SK-MEL-28 > 100 µM | EKVX > 100 µM | NCI-H522 15.9 µM | SK-OV-3 > 100 µM | RPMI-8226 31.6 µM | A498 > 100 µM | HOP-92 72.9 µM | NCI-H226 78.3 µM

From ChEMBL document CHEMBL1201862, “PubChem BioAssay data set” (2004)
